Experimental data reported in patent US12528814B2, “Bifunctional degraders of interleukin-1 receptor-associated kinases and therapeutic use thereof” (NURIX THERAPEUTICS, INC., priority 2020, dated 2026).

Columns and labels:
[1] = target: T1, IRAK4 (Homo sapiens (Human), UniProt Q9NWZ3); assay: IRAK4 Biochemical HTRF Kinase Assay; conditions: Table 5; multiple runs; read-out: IRAK4 HTRF biochemical: IC50
Summary of the method: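 IC50 values derive from non-linear regression of sixteen concentrations in duplicate. Kinase reaction ran 90 min at ambient temperature after adding 5 μM STK-S1 substrate, 10 mM ATP and 10 mM MgCl2 (reaction-solution levels, pre-dilution to 10 μl); phospho-peptide detected by HTRF after 60 min.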
Target sequence in this assay (Q9NWZ3 whole entry, species assumed): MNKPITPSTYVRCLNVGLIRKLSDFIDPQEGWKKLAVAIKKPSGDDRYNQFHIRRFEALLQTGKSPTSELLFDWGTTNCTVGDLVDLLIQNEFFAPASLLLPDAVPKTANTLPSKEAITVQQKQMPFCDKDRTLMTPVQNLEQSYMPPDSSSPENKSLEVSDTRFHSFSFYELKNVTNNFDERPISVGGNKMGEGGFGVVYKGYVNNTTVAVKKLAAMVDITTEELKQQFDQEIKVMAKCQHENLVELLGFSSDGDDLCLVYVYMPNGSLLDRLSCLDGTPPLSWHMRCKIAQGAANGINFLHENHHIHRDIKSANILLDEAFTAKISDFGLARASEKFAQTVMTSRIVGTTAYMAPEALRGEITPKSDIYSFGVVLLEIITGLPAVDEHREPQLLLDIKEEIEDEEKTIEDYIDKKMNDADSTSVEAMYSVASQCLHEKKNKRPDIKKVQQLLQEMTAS

[2] = target: T1, IRAK4; assay: IRAK4 Degradation HiBiT Assay; conditions: multiple runs, HiBiT-tagged Jurkat cells, 4 hrs; for Dmax: Jurkat, read-out: Cellular IRAK4 HiBiT: Dmax, Table 5; for DC50: read-out: Cellular IRAK4 HiBiT: DC50, Table 5
Target sequence in this assay (Q9NWZ3 whole entry): as the sequence (Q9NWZ3 whole entry, species assumed) above

IC50 [1] | Dmax [2] | DC50 [2] | SMILES
0.0021 µM | 109% | 0.124 µM | CNc1cc(-c2ccc3cc(C#N)cnn23)ncc1-c1nnc(C23CCC(NC(=O)CCCCCC(=O)N[C@H](C(=O)N4C[C@H](O)C[C@H]4C(=O)N[C@@H](C)c4ccc(-c5scnc5C)cc4)C(C)(C)C)(CC2)CC3)s1 [Example 131, N1-(4-(5-(6-(3-cyanopyrrolo[1,2-b]pyridazin-7-yl)-4-(methylamino)pyridin-3-yl)-1,3,4-thiadiazol-2-yl)bicyclo[2.2.2]octan-1-yl)-N7-((S)-1-((2S,4R)-4-hydroxy-2-(((S)-1-(4-(4-methylthiazol-5-yl)phenyl)ethyl)carbamoyl)pyrrolidin-1-yl)-3,3-dimethyl-1-oxobutan-2-yl)heptanediamide]
0.0006 µM | – | > 9.98 µM | CNc1cc(-c2ccc3cc(C#N)cnn23)ncc1-c1nnc(N2CCN(C3CCN(C(=O)c4ccc(C(=O)NC5CCC(=O)NC5=O)cc4)CC3)CC2)s1 (stereo not drawn) [Example 132, 4-(4-(4-(5-(6-(3-cyanopyrrolo[1,2-b]pyridazin-7-yl)-4-(methylamino)pyridin-3-yl)-1,3,4-thiadiazol-2-yl)piperazin-1-yl)piperidine-1-carbonyl)-N-(2,6-dioxopiperidin-3-yl)benzamide]
0.0009 µM | 111% | 0.0514 µM | CNc1cc(-c2ccc3cc(C#N)cnn23)ncc1-c1nnc([C@H]2CC[C@@H](NC(=O)C3CCN(c4ccc5c(c4)C(=O)N(C4CCC(=O)NC4=O)C5=O)CC3)CC2)s1 (stereo partly drawn) [Example 133, N-((1s,4s)-4-(5-(6-(3-cyanopyrrolo[1,2-b]pyridazin-7-yl)-4-(methylamino)pyridin-3-yl)-1,3,4-thiadiazol-2-yl)cyclohexyl)-1-(2-(2,6-dioxopiperidin-3-yl)-1,3-dioxoisoindolin-5-yl)piperidine-4-carboxamide]
0.0009 µM | 103% | 0.0641 µM | CNc1cc(-c2ccc3cc(C#N)cnn23)ncc1-c1nnc(C23CCC(NC(=O)C4CCN(c5ccc6c(c5)C(=O)N(C5CCC(=O)NC5=O)C6=O)CC4)(CC2)CC3)s1 (stereo not drawn) [Example 134, N-(4-(5-(6-(3-cyanopyrrolo[1,2-b]pyridazin-7-yl)-4-(methylamino)pyridin-3-yl)-1,3,4-thiadiazol-2-yl)bicyclo[2.2.2]octan-1-yl)-1-(2-(2,6-dioxopiperidin-3-yl)-1,3-dioxoisoindolin-5-yl)piperidine-4-carboxamide]
0.001 µM | 46% | 0.774 µM | CNc1cc(-c2ccc3cc(C#N)cnn23)ncc1-c1nnc([C@H]2CC[C@@H](NC(=O)C3CCN(c4cccc5c4C(=O)N(C4CCC(=O)NC4=O)C5=O)CC3)CC2)s1 (stereo partly drawn) [Example 135, N-((1s,4s)-4-(5-(6-(3-cyanopyrrolo[1,2-b]pyridazin-7-yl)-4-(methylamino)pyridin-3-yl)-1,3,4-thiadiazol-2-yl)cyclohexyl)-1-(2-(2,6-dioxopiperidin-3-yl)-1,3-dioxoisoindolin-4-yl)piperidine-4-carboxamide]
0.0226 µM | 108% | 0.0191 µM | CNc1cc(-c2ccc3cc(C#N)cnn23)ncc1-c1nnc([C@H]2CC[C@H](N(C)C(=O)CN3CCN(c4ccc5c(c4)C(=O)N(C4CCC(=O)NC4=O)C5=O)CC3)CC2)s1 (stereo partly drawn) [Example 137, N-((1r,4r)-4-(5-(6-(3-cyanopyrrolo[1,2-b]pyridazin-7-yl)-4-(methylamino)pyridin-3-yl)-1,3,4-thiadiazol-2-yl)cyclohexyl)-2-(4-(2-(2,6-dioxopiperidin-3-yl)-1,3-dioxoisoindolin-5-yl)piperazin-1-yl)-N-methylacetamide]
0.0008 µM | 116% | 0.0655 µM | CNc1cc(-c2ccc3cc(C#N)cnn23)ncc1-c1nnc([C@H]2CC[C@H](NC(=O)C3CN(C4CCN(c5ccc6c(c5)C(=O)N(C5CCC(=O)NC5=O)C6=O)CC4)C3)CC2)s1 (stereo partly drawn) [Example 138, N-((1r,4r)-4-(5-(6-(3-cyanopyrrolo[1,2-b]pyridazin-7-yl)-4-(methylamino)pyridin-3-yl)-1,3,4-thiadiazol-2-yl)cyclohexyl)-1-(1-(2-(2,6-dioxopiperidin-3-yl)-1,3-dioxoisoindolin-5-yl)piperidin-4-yl)azetidine-3-carboxamide]
0.0009 µM | 24% | 0.0106 µM | CNc1cc(-c2ccc3cc(C#N)cnn23)ncc1-c1nnc([C@H]2CC[C@H](NC(=O)C3CCN(c4cccc5c4C(=O)N(C4CCC(=O)NC4=O)C5=O)CC3)CC2)s1 (stereo partly drawn) [Example 139, N-((1r,4r)-4-(5-(6-(3-cyanopyrrolo[1,2-b]pyridazin-7-yl)-4-(methylamino)pyridin-3-yl)-1,3,4-thiadiazol-2-yl)cyclohexyl)-1-(2-(2,6-dioxopiperidin-3-yl)-1,3-dioxoisoindolin-4-yl)piperidine-4-carboxamide]
0.0023 µM | 111% | 0.0889 µM | CNc1cc(-c2ccc3cc(C#N)cnn23)ncc1-c1nnc(C23CCC(NC(=O)C[C@H](NC(=O)[C@@H]4C[C@@H](O)CN4C(=O)[C@@H](NC(=O)C4(F)CC4)C(C)(C)C)c4ccc(-c5scnc5C)cc4)(CC2)CC3)s1 [Example 140, (2S,4R)—N—((S)-3-((4-(5-(6-(3-cyanopyrrolo[1,2-b]pyridazin-7-yl)-4-(methylamino)pyridin-3-yl)-1,3,4-thiadiazol-2-yl)bicyclo[2.2.2]octan-1-yl)amino)-1-(4-(4-methylthiazol-5-yl)phenyl)-3-oxopropyl)-1-((S)-2-(1-fluorocyclopropane-1-carboxamido)-3,3-dimethylbutanoyl)-4-hydroxypyrrolidine-2-carboxamide]
0.0014 µM | 133% | 1.91 µM | CNc1cc(-c2ccc3cc(C#N)cnn23)ncc1-c1nnc(C23CCC(NC(=O)CCCC(=O)N[C@H](C(=O)N4C[C@H](O)C[C@H]4C(=O)NCc4ccc(-c5scnc5C)cc4)C(C)(C)C)(CC2)CC3)s1 [Example 141, N1-(4-(5-(6-(3-cyanopyrrolo[1,2-b]pyridazin-7-yl)-4-(methylamino)pyridin-3-yl)-1,3,4-thiadiazol-2-yl)bicyclo[2.2.2]octan-1-yl)-N5-((S)-1-((2S,4R)-4-hydroxy-2-((4-(4-methylthiazol-5-yl)benzyl)carbamoyl)pyrrolidin-1-yl)-3,3-dimethyl-1-oxobutan-2-yl)glutaramide]
0.0018 µM | 49% | 0.109 µM | CNc1cc(-c2ccc3cc(C#N)cnn23)ncc1-c1nnc(N2CCN(C3CCN(Cc4ccc(C(=O)NC5CCC(=O)NC5=O)cc4)CC3)CC2)s1 (stereo not drawn) [Example 145, 4-((4-(4-(5-(6-(3-cyanopyrrolo[1,2-b]pyridazin-7-yl)-4-(methylamino)pyridin-3-yl)-1,3,4-thiadiazol-2-yl)piperazin-1-yl)piperidin-1-yl)methyl)-N-(2,6-dioxopiperidin-3-yl)benzamide]
0.0029 µM | 77% | 0.231 µM | CNc1cc(-c2ccc3cc(C#N)cnn23)ncc1-c1nnc(N2CCC(NC(=O)C[C@H](NC(=O)[C@@H]3C[C@@H](O)CN3C(=O)[C@@H](NC(=O)C3(F)CC3)C(C)(C)C)c3ccc(-c4scnc4C)cc3)CC2)s1 [Example 146, (2S,4R)—N—((S)-3-((1-(5-(6-(3-cyanopyrrolo[1,2-b]pyridazin-7-yl)-4-(methylamino)pyridin-3-yl)-1,3,4-thiadiazol-2-yl)piperidin-4-yl)amino)-1-(4-(4-methylthiazol-5-yl)phenyl)-3-oxopropyl)-1-((S)-2-(1-fluorocyclopropane-1-carboxamido)-3,3-dimethylbutanoyl)-4-hydroxypyrrolidine-2-carboxamide]
0.0014 µM | – | > 9.98 µM | CNc1cc(-c2ccc3cc(C#N)cnn23)ncc1-c1nnc([C@H]2CC[C@H](NC(=O)CN3CCN(c4ccc5c(c4)C(=O)N(C4CCC(=O)N(C)C4=O)C5=O)CC3)CC2)s1 (stereo partly drawn) [Example 148, N-((1r,4r)-4-(5-(6-(3-cyanopyrrolo[1,2-b]pyridazin-7-yl)-4-(methylamino)pyridin-3-yl)-1,3,4-thiadiazol-2-yl)cyclohexyl)-2-(4-(2-(1-methyl-2,6-dioxopiperidin-3-yl)-1,3-dioxoisoindolin-5-yl)piperazin-1-yl)acetamide]
0.0008 µM | – | > 9.98 µM | CNc1cc(-c2ccc3cc(C#N)cnn23)ncc1-c1nnc(C2CCC(NC(=O)C[C@H](NC(=O)[C@@H]3C[C@@H](O)CN3C(=O)[C@@H](NC(=O)C3(F)CC3)C(C)(C)C)c3ccccc3)CC2)s1 (stereo partly drawn) [Example 149, (2S,4R)—N—((S)-3-(((1r,4S)-4-(5-(6-(3-cyanopyrrolo[1,2-b]pyridazin-7-yl)-4-(methylamino)pyridin-3-yl)-1,3,4-thiadiazol-2-yl)cyclohexyl)amino)-3-oxo-1-phenylpropyl)-1-((S)-2-(1-fluorocyclopropane-1-carboxamido)-3,3-dimethylbutanoyl)-4-hydroxypyrrolidine-2-carboxamide]
0.0055 µM | 113% | 0.441 µM | CNc1cc(-c2ccc3cc(C#N)cnn23)ncc1-c1nnc(N2CCCC3(CN(C(=O)C[C@H](NC(=O)[C@@H]4C[C@@H](O)CN4C(=O)[C@@H](NC(=O)C4(F)CC4)C(C)(C)C)c4ccc(-c5scnc5C)cc4)C3)C2)s1 [Example 150, (2S,4R)—N—((S)-3-(6-(5-(6-(3-cyanopyrrolo[1,2-b]pyridazin-7-yl)-4-(methylamino)pyridin-3-yl)-1,3,4-thiadiazol-2-yl)-2,6-diazaspiro[3.5]nonan-2-yl)-1-(4-(4-methylthiazol-5-yl)phenyl)-3-oxopropyl)-1-((S)-2-(1-fluorocyclopropane-1-carboxamido)-3,3-dimethylbutanoyl)-4-hydroxypyrrolidine-2-carboxamide]
